Data from patent US6071950A, “N-substituted pyrrolidine derivatives and process for preparing the same” (Kyorin Pharmaceutical Co., Ltd., priority 1996, dated 2000).

Assays:
[1] = molecular target: T1, sphincter muscle of the pupil (Oryctolagus cuniculus, UniProt G1U308); assay: Antagonism on the acetylcholine-induced contraction of pupil (in vitro test); settings: rabbit sphincter muscle of the pupil, Schild plot, acetylcholine 10^-6 M~10^-2 M, 30° C., read-out: pA2 Pupil (converted)
T1 construct: The eyeball was removed to make a preparation of sphincter muscle of the pupil; from tissue; host or cells: isolated pupillary sphincter muscle of Japanese white male rabbit
Procedure: 2. Antagonism on the acetylcholine-induced contraction of pupil (in vitro test)
Japanese white male rabbit was anesthetized using sodium pentobarbital and killed by bleeding. The eyeball was removed to make a preparation of sphincter muscle of the pupil. The preparation was mounted in a 10 ml organ bath filled with Krebs solution of 30° C. that was bubbled with 95% O2 /5% CO2. The initial resting tension of 0.2 g was applied to the preparation and measurement of isometric muscle tension was recorded.
The action of testing drug is shown in terms of pA2 determined from Schild plot of the extent of right shift of the concentration-response curve on 10^-6 M~10^-2 M of acetylcholine.

pupil = assay: Diameter of pupil in the restraint stress model (in vivo test); design: species or system rat; settings: Wistar male rats, 10 mg/kg orally
Procedure: (§1) 4. Inhibitory effect in the defecation model under restraint stress (in vivo test)
(§2) Wistar strain male rats were employed. Testing drug was administered orally at 10 mg/kg and, after 30 minutes, the restraint stress was given by fixing the forefeet of rat on back side under anesthetization with ether. Moreover, the diameter of pupil (mm) was also measured.
(§3) After allowed to stand for 1 hour in separate cage, the defecation level and diameter of pupil were measured.

[2] = system: defecation model under restraint stress; assay: Inhibitory effect in the defecation model under restraint stress (in vivo test); design: species or system rat; settings: Wistar male rats; 10 mg/kg orally, restraint stress 30 minutes later; defecation measured after 1 hour
Procedure: as §1, §2, §3
The inhibitory rate of defecation was determined from following formula.

[3] = molecular target: T2, ileum muscarine receptors (Cavia porcellus, UniProt H0W1Z3); assay: Antagonism on the acetylcholine-induced contraction of ileum (in vitro test); settings: guinea pig ileum, Schild plot, acetylcholine 10^-9 M~3×10^-6 M, 28° C., read-out: pA2 Ileum (converted)
T2 construct: The ileum was removed to make a 1.5 to 2 cm preparation; from tissue; host or cells: isolated ileum of Hartley male guinea pig
Procedure: 1. Antagonism on the acetylcholine-induced contraction of ileum (in vitro test)
Hartley male guinea pig was killed by stunning and bleeding. The ileum was removed to make a 1.5 to 2 cm preparation. The preparation was mounted in a 10 ml organ bath filled with Tyrode's solution of 28° C. that was bubbled with 95% O2 /5% CO2. The initial resting tension of 1 g was applied to the preparation and measurement of isomeric muscle tension was recorded.
(§4) The action of testing drug is shown in terms of pA2 determined from Schild plot of the extent of right shift of the concentration-response curve on 10^-9 M~3×10^-6 M of acetylcholine.

[4] = molecular target: T3, heart muscarine receptors (Cavia porcellus, UniProt H0VRN8); assay: Antagonism action on the acetylcholine-induced negative chronotropic action of atrium of heart (in vitro test); settings: guinea pig atrium of heart, Schild plot, acetylcholine 10^-9 M~3×10^-6 M, 32° C., read-out: pA2 Atrium (converted)
T3 construct: The heart was removed to make a preparation of atrium of heart; from tissue; host or cells: isolated atrium of Hartley male guinea pig
T3 sequence (H0VRN8 1-466): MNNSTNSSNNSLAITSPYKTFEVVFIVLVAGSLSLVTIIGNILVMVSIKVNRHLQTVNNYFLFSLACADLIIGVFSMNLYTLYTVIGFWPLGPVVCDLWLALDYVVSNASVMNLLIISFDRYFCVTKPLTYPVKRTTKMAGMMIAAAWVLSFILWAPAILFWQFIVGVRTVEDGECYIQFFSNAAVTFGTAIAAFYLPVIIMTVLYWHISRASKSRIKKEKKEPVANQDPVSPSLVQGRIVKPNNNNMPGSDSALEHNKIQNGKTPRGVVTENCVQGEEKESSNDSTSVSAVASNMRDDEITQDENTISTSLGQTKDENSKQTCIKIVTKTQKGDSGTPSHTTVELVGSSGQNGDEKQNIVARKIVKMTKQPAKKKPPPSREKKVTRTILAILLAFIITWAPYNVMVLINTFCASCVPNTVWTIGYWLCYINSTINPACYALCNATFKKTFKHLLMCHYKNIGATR
Procedure: 3. Antagonism action on the acetylcholine-induced negative chronotropic action of atrium of heart (in vitro test)
Hartley male guinea pig was killed by stunning and bleeding. The heart was removed to make a preparation of atrium of heart. The preparation was mounted in a 10 ml organ bath filled with Krebs-Henseleit solution of 32° C. that was bubbled with 95% O2 /5% CO2. The initial resting tension was made to be 0.5 g and measurement of isometric muscle tension was recorded.
as §4

T2 sequence (H0W1Z3 1-590): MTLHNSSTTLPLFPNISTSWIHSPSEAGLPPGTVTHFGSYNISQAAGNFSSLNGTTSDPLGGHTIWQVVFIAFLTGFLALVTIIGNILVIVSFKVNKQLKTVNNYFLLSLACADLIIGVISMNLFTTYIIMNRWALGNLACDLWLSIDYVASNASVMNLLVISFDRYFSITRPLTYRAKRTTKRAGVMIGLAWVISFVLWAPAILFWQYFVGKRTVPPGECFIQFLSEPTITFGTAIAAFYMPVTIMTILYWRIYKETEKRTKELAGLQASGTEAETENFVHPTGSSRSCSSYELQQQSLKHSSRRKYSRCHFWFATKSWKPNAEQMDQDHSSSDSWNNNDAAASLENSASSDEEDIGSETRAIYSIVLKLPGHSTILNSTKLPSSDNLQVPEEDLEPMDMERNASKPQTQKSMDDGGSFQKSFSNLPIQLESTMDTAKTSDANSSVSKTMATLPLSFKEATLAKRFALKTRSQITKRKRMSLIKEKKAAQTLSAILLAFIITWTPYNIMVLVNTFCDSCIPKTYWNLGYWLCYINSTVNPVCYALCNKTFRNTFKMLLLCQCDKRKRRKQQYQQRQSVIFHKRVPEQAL
T1 sequence (G1U308 entry or part of it): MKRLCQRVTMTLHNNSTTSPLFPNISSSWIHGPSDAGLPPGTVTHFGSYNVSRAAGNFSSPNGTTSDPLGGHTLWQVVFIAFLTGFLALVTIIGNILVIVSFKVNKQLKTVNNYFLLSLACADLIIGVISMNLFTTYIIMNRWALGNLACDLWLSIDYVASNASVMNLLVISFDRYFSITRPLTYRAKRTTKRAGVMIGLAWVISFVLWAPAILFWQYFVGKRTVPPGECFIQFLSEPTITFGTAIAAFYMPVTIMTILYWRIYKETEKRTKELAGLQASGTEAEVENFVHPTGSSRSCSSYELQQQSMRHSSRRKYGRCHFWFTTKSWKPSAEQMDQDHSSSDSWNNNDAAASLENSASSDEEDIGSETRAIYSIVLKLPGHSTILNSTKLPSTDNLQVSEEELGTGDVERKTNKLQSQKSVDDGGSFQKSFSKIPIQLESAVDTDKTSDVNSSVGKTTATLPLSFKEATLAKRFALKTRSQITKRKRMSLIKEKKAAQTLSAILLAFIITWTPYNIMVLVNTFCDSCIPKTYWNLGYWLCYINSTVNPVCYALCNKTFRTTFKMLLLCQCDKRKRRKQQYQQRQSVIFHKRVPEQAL

What does the source list for `NC(=O)C(CCN1CCC(OCc2cccc(Cl)c2)C1)(c1ccccc1)c1ccccc1` (stereo not drawn) [Example 9, 4-[3-(3-chlorobenzyloxy)pyrrolidine-1-yl]-2,2-diphenylbutaneamide]?
Kb [1]: 50.1 nM; Diameter of pupil (mm), Immediately after restraint (pupil; Control 0.44): 0.43 mm; Diameter of pupil (mm), After restraint (pupil; after 1 hour, Control 0.48): 0.45 mm; Inhibitory rate of defecation (%) [2]: 48.9%; Kb [3]: 25.1 nM; Kb [4]: 631 nM
